Source: patent US20230405031A1, “METHODS AND COMPOSITIONS RELATED TO RECEPTOR-MEDIATED GLUCOSE SENSING” (Ohio State Innovation Foundation, priority 2020, published 2023)

Assays:
SIRT1 = target: T1, SIRT1 (Homo sapiens, UniProt Q96EB6); conditions: read-out: Km (affinity for NAD+); cited from earlier work
T1 sequence (Q96EB6 1-747): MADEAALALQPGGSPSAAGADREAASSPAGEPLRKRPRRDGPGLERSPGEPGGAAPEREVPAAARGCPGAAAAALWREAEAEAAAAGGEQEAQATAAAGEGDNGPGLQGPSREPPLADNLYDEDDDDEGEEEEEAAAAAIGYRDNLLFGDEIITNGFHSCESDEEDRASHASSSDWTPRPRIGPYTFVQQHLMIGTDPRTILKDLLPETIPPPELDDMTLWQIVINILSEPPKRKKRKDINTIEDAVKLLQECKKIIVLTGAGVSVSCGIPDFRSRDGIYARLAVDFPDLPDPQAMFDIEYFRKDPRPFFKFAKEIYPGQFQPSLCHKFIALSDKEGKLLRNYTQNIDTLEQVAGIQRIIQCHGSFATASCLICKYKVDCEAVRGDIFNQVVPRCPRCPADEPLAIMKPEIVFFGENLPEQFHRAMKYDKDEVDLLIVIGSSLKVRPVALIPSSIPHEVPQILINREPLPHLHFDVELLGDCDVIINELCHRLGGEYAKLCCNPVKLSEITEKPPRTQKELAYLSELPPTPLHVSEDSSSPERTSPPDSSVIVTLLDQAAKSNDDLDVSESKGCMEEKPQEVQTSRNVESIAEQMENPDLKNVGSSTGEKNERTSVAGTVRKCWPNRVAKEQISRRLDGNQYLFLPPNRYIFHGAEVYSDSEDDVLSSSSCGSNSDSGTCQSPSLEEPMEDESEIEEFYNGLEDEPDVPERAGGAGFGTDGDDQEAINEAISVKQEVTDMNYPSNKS

SIRT2 = target: T2, SIRT2 (Homo sapiens, UniProt Q8IXJ6); conditions: read-out: Km (affinity for NAD+); cited from earlier work
T2 sequence (Q8IXJ6 1-389): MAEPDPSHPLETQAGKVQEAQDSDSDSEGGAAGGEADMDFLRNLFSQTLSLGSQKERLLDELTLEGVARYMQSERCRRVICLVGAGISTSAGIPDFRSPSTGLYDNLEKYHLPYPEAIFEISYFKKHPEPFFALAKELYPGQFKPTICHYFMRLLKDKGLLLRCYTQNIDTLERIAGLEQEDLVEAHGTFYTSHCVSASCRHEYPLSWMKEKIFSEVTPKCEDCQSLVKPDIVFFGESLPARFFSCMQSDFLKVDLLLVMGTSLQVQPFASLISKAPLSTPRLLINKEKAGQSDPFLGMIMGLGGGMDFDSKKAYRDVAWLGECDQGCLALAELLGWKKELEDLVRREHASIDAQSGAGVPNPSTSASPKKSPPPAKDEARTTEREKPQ

ERK2 phosphorylation = ERK2 phosphorylation in gastrocnemius after intramuscular injection of STR ligands; assay type: in vivo; conditions: intra-muscular injection, anesthetized mice after overnight fast, WT vs T1R2-KO, vs vehicle in contralateral muscle
Procedure: FIGS. 8A-8E show STR signaling involves ERK2 and SIRT1 activation. (8A) ERK1/2 phosphorylation in gastrocnemius from fed mice. Quantitation includes both ERK1 and ERK2 bands (n=6/group). (8B-8C) ERK2 phosphorylation in response to bilateral intramuscular injection of either sucralose or 3-OMG (right gastroc) or vehicle (left gastroc) in anesthetized mice after an overnight fast (n=8/group). (8D) NAD levels in C2C12 cells culture in high (black dots) or low (blue dots) glucose for 54 h. In select cells, equal molarity (20 mM) of glucose (Glu) or 3-OMG was added during the last 6 h (ANOVA). (8E) PGC1a acetylation in gastrocnemius from 5 hours fasted mice using immunoprecipitation (IP) with anti-PGC1a (Millipore ST1202) and then immunoblotting (IB) with anti-PGC1a and anti-acetyl-lysine (CST #9441). IB of PGC1a is shown in input. Student's T-test, p value. Elucidation of signaling pathway leading to PARP1 regulation and NAD^+ bioavailability. The reduced PARP1 activity in T1R2-KO muscles correlates with substantial increases in NAD^+ levels (FIGS. 2C and 3B). STR belong to the Gq family of GPCRs and, in various tissues, activate phospholipase C (PLC)-mediated signaling cascades (9, 62) (FIG. 7). PARP1 is mainly regulated in response to DNA damage (63), but it was reasoned that a downstream effector(s) of PLC-dependent pathway may regulate PARP1 in skeletal muscle. […]

C2C12 cells = assay: NAD levels in differentiated C2C12 cells cultured at high or low glucose; assay type: cell-based; conditions: 20 mM added during the last 6 h to low-glucose (5 mM) cultured differentiated C2C12 cells, 54 h culture
Procedure: FIGS. 8A-8E show STR signaling involves ERK2 and SIRT1 activation. (8A) ERK1/2 phosphorylation in gastrocnemius from fed mice. Quantitation includes both ERK1 and ERK2 bands (n=6/group). (8B-8C) ERK2 phosphorylation in response to bilateral intramuscular injection of either sucralose or 3-OMG (right gastroc) or vehicle (left gastroc) in anesthetized mice after an overnight fast (n=8/group). (8D) NAD levels in C2C12 cells culture in high (black dots) or low (blue dots) glucose for 54 h. In select cells, equal molarity (20 mM) of glucose (Glu) or 3-OMG was added during the last 6 h (ANOVA). (8E) PGC1a acetylation in gastrocnemius from 5 hours fasted mice using immunoprecipitation (IP) with anti-PGC1a (Millipore ST1202) and then immunoblotting (IB) with anti-PGC1a and anti-acetyl-lysine (CST #9441). IB of PGC1a is shown in input. Student's T-test, p value. Determination of downstream effectors of NAD^+-SIRT axis. To shed light on the link between STR activation and NAD regulation, differentiated C2C12 cells were cultured at high (25 mM) or low (5 mM) glucose for 54 hours and observed an anticipated increase in NAD levels during the low-glucose condition (FIG. 8D) (18, 69). […] Thus, it appears that a STR-mediated regulation of NAD^+-SIRT axis is sufficient to account for key muscle adaptations in T1R2-KO mice. […]

muscle fibers = assay: Oxygen flux in permeabilized muscle fibers (high resolution respirometry); design: species or system mice; conditions: after malate+pyruvate and ADP, data not shown
Source text: FIGS. 4A-4H show STRs regulate mitochondrial function and exercise capacity. (4A) Oxygen flux in muscle fibers in response to malate+pyruvate and ADP. […] (4B) Oxygen consumption rate (OCR) in differentiated myoblasts. Oligomycin (Comp V inhibition), FCCP (Carbonyl cyanide-4 (trifluoromethoxy) phenylhydrazone; uncoupler), rotenone (Comp I inhibition) (n=5/group). (4C) Quantitative analysis of lactate, ATP and ADP in gastrocnemius following 5-hours fasting (n=9-11/group). (4D) Succinate dehydrogenase staining in muscle sections. Arrows show SDH staining in gastrocnemius n=6/group). (4E) Immunoblotting of mitochondrial complex proteins with quantitation (n=6/group). (4F) Exercise endurance in mice at […] grade and 20 m/min (n=8/group). (4G) Oxygen consumption and (4H) respiratory exchange ratio (RER) under steady state conditions (plateaued values for at least 10 min) before exhaustion in mice subjected to a submaximal exercise bout as in (4F). Student's t-test, p value for (4B-4H).
ADPr is converted to PRPP, which can be used either for NAD^+ regeneration (salvage pathway), or for nucleotide synthesis (FIG. 2F), showing that ADPr can be a metabolic link between NAD^+ and purine/pyrimidine metabolism. Therefore, it was reasoned that the unprecedented depletion of ADPr in T1R2-KO muscles can be due to reduced NAD-consumption and/or increased PRPP utilization for nucleotide biosynthesis. […]

For `NC(=O)c1ccc[n+]([C@@H]2O[C@H](COP(=O)([O-])OP(=O)(O)OC[C@H]3O[C@@H](n4cnc5c(N)ncnc54)[C@H](O)[C@@H]3O)[C@@H](O)[C@H]2O)c1` [NAD^+, Nicotinamide adenine dinucleotide], the Km (SIRT1) is given as 95 µM and the Km (SIRT2) is given as 83 µM.
With `CO[C@@H]([C@H](O)[C@H](O)CO)[C@@H](O)C=O` [3-OMG, 3-O-methylglucose] the ERK2 phosphorylation (ERK2 phosphorylation) was “activated ERK2 phosphorylation in WT, but not in T1R2-KO muscles” and the NAD levels (C2C12 cells) was “caused a significant drop in NAD, although to a lesser extent than 20 mM glucose”.
For `OC[C@H]1O[C@H](O[C@]2(CCl)O[C@H](CCl)[C@@H](O)[C@@H]2O)[C@H](O)[C@@H](O)[C@H]1Cl` [sucralose], the ERK2 phosphorylation (ERK2 phosphorylation) was “activated ERK2 phosphorylation in WT, but not in T1R2-KO muscles”.
For antimycin A, the Oxygen flux (muscle fibers) was “suppressed oxygen flux”.
